Source: ChEMBL document CHEMBL1156829 (Proc Natl Acad Sci U S A, 2008)

Key:
Plasmodium falciparum [1] = assay: NOVARTIS: Inhibition of Plasmodium falciparum 3D7 (drug-susceptible) proliferation in erythrocyte-based infection assay; format: functional, organism-based
Plasmodium falciparum [2] = assay: NOVARTIS: Inhibition of Plasmodium falciparum W2 (drug-resistant) proliferation in erythrocyte-based infection assay; format: functional, organism-based; conditions: Plasmodium falciparum, W2; read-out: EC50
[3] = NOVARTIS: Cytotoxicity against human hepatocellular carcinoma cell line (Huh7); format: toxicity, cell-based, Huh-7; conditions: Huh7 cells (hepatocellular carcinoma cell line)

Row | Compound | EC50 (Plasmodium falciparum [1]; Plasmodium falciparum, 3D7) | EC50 (Plasmodium falciparum [2]) | CC50 [3] | EC50 (Plasmodium falciparum [1])
1 | Cc1nnc2sc(SCc3ccc([N+](=O)[O-])cc3)nn2c1=O | > 481 nM | > 1640 nM | > 10000 nM | –
2 | CCOc1ccc(NC2=C(N3CCOCC3)C(=O)c3ccccc3C2=O)cc1 | 3660 nM | 6570 nM | > 100000 nM | –
3 | COc1ccc(C)cc1-n1c(-c2ccc(Cl)cc2)cc2c1CC(C)(C)CC2=O | 3.34 nM | > 145 nM | > 10000 nM | –
4 | COc1ccc(N2C(N)=NC(N)=NC2(C)C)cc1 | 13.8 nM | > 1250 nM | > 10000 nM | –
5 | O=C(COc1ccc(Cl)cc1)NCCCCNc1ccnc2cc(Cl)ccc12 | 240 nM | 303 nM | > 9740 nM | –
6 | CCN(CC)C(=O)c1cn(C2CCN(Cc3ccco3)CC2)nn1 | > 1250 nM | 26.7 nM | > 10000 nM | –
7 | C=CCN1C=CC(=Cc2sc3ccccc3[n+]2C)c2ccccc21 | – | 125 nM | > 9370 nM | 432 nM
8 | Cc1cccc(Nc2ccccc2C(=O)OCC(=O)N2CC(=O)Nc3ccccc32)c1C | 4710 nM | 3820 nM | 55100 nM | –
9 | O=C(C[n+]1cc(-c2ccc(F)cc2)n2c1CCC2)Nc1ccc(Cl)cc1 | 2880 nM | 2300 nM | > 100000 nM | –
10 | Cc1ccc(C)c(NC2=C(c3ccc(C(F)(F)F)cc3)C(=O)c3ccccc32)c1 | 1850 nM | 4220 nM | > 100000 nM | –
11 | Cn1c(NN=Cc2ccccc2)cc(=O)n(C)c1=O | > 1250 nM | 325 nM | > 10000 nM | –
12 | CSc1oc(C(C)(C)C)nc1[P+](c1ccccc1)(c1ccccc1)c1ccccc1 | 296 nM | 438 nM | 6820 nM | –
13 | Cc1ccc2[nH]c3c(NCCN4CCCCC4)ncnc3c2c1 | 216 nM | 99 nM | 39700 nM | –
14 | CCOc1ccc(C=NNC(=O)CCn2nnc3ccccc32)cc1 | > 1040 nM | > 1250 nM | > 13600 nM | –
15 | CC(=O)Nc1ccc2c(c1)CCCC2 | 1130 nM | 191 nM | > 10000 nM | –
16 | COc1ccc(C2=C(c3ccc(OC)cc3)C3(c4ccccc4)C(=O)C2(c2ccccc2)C2C(=O)N(c4ccc(OC)cc4[N+](=O)[O-])C(=O)C23)cc1 (configuration not stated) | 353 nM | 316 nM | > 100000 nM | –
17 | CCCN(CCC)S(=O)(=O)c1cc(Br)cc2c1N(C(=O)C1CC1)CC2 | 410 nM | 736 nM | > 100000 nM | –
18 | O=C(NCc1n[nH]c(=S)n1-c1ccc(Br)cc1)c1cccc2ccccc12 | 293 nM | 301 nM | > 100000 nM | –
19 | Cc1ccc(C)c(Nc2nc(NCc3ccco3)c3ccccc3n2)c1 | 298 nM | 844 nM | 5940 nM | –
20 | CC1CCN(C(=O)C2CCCN(S(=O)(=O)c3ccc4[nH]c(-c5ccccc5)nc4c3)C2)CC1 (configuration not stated) | > 12500 nM | 6030 nM | > 100000 nM | –
21 | Cc1ccc(-n2c(C(C)N(Cc3ccco3)C(=O)C3CCC3)nc3cc(Cl)ccc3c2=O)cc1 (configuration not stated) | > 1680 nM | 208 nM | > 2760 nM | –
22 | OCCCNc1cc(-c2ccccn2)nc(-c2ccccn2)n1 | > 908 nM | 401 nM | > 10000 nM | –
23 | Oc1ccc(-c2cnccn2)cc1CNC1CCN(Cc2ccccc2)CC1 | 385 nM | 380 nM | 82800 nM | –

Row | Compound | EC50 (Plasmodium falciparum [1]; Plasmodium falciparum, 3D7) | EC50 (Plasmodium falciparum [2]) | CC50 [3] | EC50 (Plasmodium falciparum [1])
24 | Nc1nc(N)c2cc(S(=O)(=O)N3CCSCC3)ccc2n1 | 116 nM | > 1250 nM | 15100 nM | –
25 | Cc1cccc(-c2ccc(NC(=O)C3CCN(Cc4cnc(C)nc4)CC3)cc2)c1 | > 6880 nM | > 12500 nM | > 100000 nM | –
26 | CCCOC(=O)C1=C(C)NC2=C(C(=O)CCC2)C1c1cc(Br)c(O)c(OCC)c1 (configuration not stated) | > 12500 nM | 2820 nM | > 100000 nM | –
27 | CCCOC(=O)C1=C(C)NC2=C(C(=O)CC(c3ccc(OC)cc3)C2)C1c1ccc(Cl)cc1Cl (configuration not stated) | 36.9 nM | 16.2 nM | > 100000 nM | –
28 | CC1=C(C(=O)OC(C)C)C(c2ccccc2F)C2=C(CC(C)(C)CC2=O)N1 (configuration not stated) | > 1250 nM | 1910 nM | > 10000 nM | –
29 | CCC(C)(C)n1nnnc1C(c1cc2cc(C)cc(C)c2[nH]c1=O)N1CCN(c2ccc(O)cc2)CC1 (configuration not stated) | 2440 nM | 1070 nM | > 100000 nM | –
30 | Cc1ccc(Nc2nc(NN=Cc3ccc(-c4ccc([N+](=O)[O-])cc4)o3)nc(N3CCOCC3)n2)cc1Cl | > 598 nM | 503 nM | > 10000 nM | –
31 | Nc1ccc(-c2nc3cc(Cc4ccc5[nH]c(-c6ccc(N)cc6)nc5c4)ccc3[nH]2)cc1 | 243 nM | 63.4 nM | 17900 nM | –
32 | Cc1cc(C)c2nc(SCC(=O)Nc3ccc4c(c3)OCCO4)cc(C)c2c1 | > 1250 nM | > 942 nM | > 10000 nM | –
33 | COc1ccc(C2CC(=O)C3=C(C2)NC(C)=C(C(=O)OC2CCCC2)C3c2ccccc2OC)cc1OC (configuration not stated) | 212 nM | 72.8 nM | > 100000 nM | –
34 | c1cc(-c2cccc3cccnc23)nc(N2CCN(CCN3CCCC3)CC2)c1 | 58.4 nM | 103 nM | 70100 nM | –
35 | CC(C(=O)NCCCN)N(Cc1ccccc1)S(C)(=O)=O (configuration not stated) | > 1250 nM | 16.2 nM | > 10000 nM | –
36 | COc1ccc(C(OCCS(=O)(=O)CCO)(c2ccccc2)c2ccc(OC)cc2)cc1 | 70.3 nM | 48.9 nM | 51600 nM | –
37 | O=C(NCC1CCCO1)c1cnc(N2CCN(c3ncccn3)CC2)c2ccccc12 (configuration not stated) | > 637 nM | > 1400 nM | > 10000 nM | –
38 | Cc1cc(N2CCC(C)CC2)nc(-n2nc(C)cc2C)n1 | 1100 nM | 382 nM | > 100000 nM | –
39 | OCCNc1nc(Nc2ccc(Br)cc2)nc2ccccc12 | 490 nM | 566 nM | 12000 nM | –
40 | CCCCn1nccc1Nc1cc(C)c(C#N)c2nc3ccccc3n12 | 4420 nM | 2610 nM | > 100000 nM | –
41 | C=CCNc1cc(-c2ccccn2)nc(-c2ccccn2)n1 | 125 nM | 192 nM | > 10000 nM | –
42 | O=C(CN(CCN1CCOCC1)S(=O)(=O)c1ccccn1)N1CCN(C(c2ccccc2)c2ccccc2)CC1 | > 12500 nM | 4440 nM | > 28800 nM | –
43 | COc1cccc(CC2(CO)CCCN(Cc3sc(N4CCCC4)nc3Cl)C2)c1 (configuration not stated) | > 12500 nM | > 6210 nM | > 100000 nM | –
44 | CN(C)CCNC(=O)c1ccc(-c2cccc3c2sc2ccccc23)nc1N1CCN(CCO)CC1 | 388 nM | 452 nM | 5320 nM | –
45 | CN1C=C(c2ccc3ccccc3n2)C(C[N+](=O)[O-])c2ccccc21 (configuration not stated) | 791 nM | 2110 nM | > 10000 nM | –
46 | Cc1cccc(NC(c2ccccc2F)c2ccc3cccnc3c2O)n1 (configuration not stated) | 2940 nM | 331 nM | > 61800 nM | –

Row | Compound | EC50 (Plasmodium falciparum [1]; Plasmodium falciparum, 3D7) | EC50 (Plasmodium falciparum [2]) | CC50 [3] | EC50 (Plasmodium falciparum [1])
47 | CC[n+]1c(C)cc2c([nH]c3ccccc32)c1C | 1240 nM | 3000 nM | > 100000 nM | –
48 | C=CCOc1cccc(/C=C2/NC(C)=C(C(=O)OCC)C2=O)c1 | > 1040 nM | > 933 nM | > 10000 nM | –
49 | CC[C@@H]1CN2CC[C@H]1C[C@H]2[C@H](O)c1ccnc2ccc(OC)cc12 | 103 nM | 298 nM | > 6250 nM | –
50 | CC1N=C2c3ccccc3N=C(SCc3ccc(F)cc3)N2C1=O (configuration not stated) | > 12500 nM | > 6530 nM | > 100000 nM | –
51 | Cc1cccc(C)c1NC(=O)N1CCN(C2CCCCC2)CC1 | > 12500 nM | > 6560 nM | > 100000 nM | –
52 | Cc1ccc(-n2c(C)c(C(=O)c3ccccc3)c3cc(O)ccc32)cc1 | 508 nM | 615 nM | > 100000 nM | –
53 | COC(=O)C1=C(C(=O)OC)SC(=C2C(=S)C(C)(C)Nc3cc(C)ccc32)S1 | > 1140 nM | > 1250 nM | > 10000 nM | –
54 | CCCCCCCCC(=O)Oc1ccccc1-c1nc2cc(C)ccn2c1NC(C)(C)CC(C)(C)C | 713 nM | 74 nM | > 10000 nM | –
55 | CCCn1c(C=NNc2nc3ccccc3[nH]2)nc2ccccc21 | 5560 nM | 5110 nM | 62800 nM | –
56 | COc1ccc(C(NC(=O)c2cccc(OC)c2)c2cc(Cl)c3cccnc3c2O)cc1 (configuration not stated) | 983 nM | 1380 nM | > 100000 nM | –
57 | O=C(NCCc1ccccc1)c1cnc(NCCCn2ccnc2)nc1NCC1CCCCC1 | 91.4 nM | 208 nM | > 10000 nM | –
58 | COc1ccc(-c2noc(CNC(=O)c3cccc(I)c3)n2)cc1 | > 12500 nM | 1580 nM | > 100000 nM | –
59 | CC1CC(C)CN(S(=O)(=O)c2ccc(C(=O)Nc3ccc(-c4nc5ccccc5o4)cc3)cc2)C1 (configuration not stated) | 1200 nM | > 1250 nM | > 10000 nM | –
60 | O=[N+]([O-])c1ccc(S(=O)(=O)NCCCCNc2ccnc3cc(Cl)ccc23)cc1 | 934 nM | 275 nM | 9670 nM | –
61 | CCc1ccc(CSc2nc3cc(OC)c(OC)cc3c(=N)n2CCc2ccccc2)cc1 | 6640 nM | 7620 nM | 38900 nM | –
62 | Cc1ccc(N=C2C(=O)Nc3ccc(C)c(Br)c32)c(O)c1 | > 963 nM | > 1250 nM | > 10000 nM | –
63 | CCN(CC)CCCC(C)NC(=O)CSc1nc2ccccc2c(=O)n1-c1cccc(Cl)c1 (configuration not stated) | > 1250 nM | > 1070 nM | > 10000 nM | –
64 | O=C(c1cnn(-c2ccccc2)c1C(F)(F)F)N1CCN(c2ccnc3cc(Cl)ccc23)CC1 | 349 nM | 88.2 nM | > 100000 nM | –
65 | N#C/C(=C\C=C\c1ccc([N+](=O)[O-])o1)c1nc2ccccc2[nH]1 | 1050 nM | 946 nM | > 10000 nM | –
66 | O=C(NNC(=O)c1cccc(F)c1)C(=O)N1CCOCC1 | > 1250 nM | > 1110 nM | > 10000 nM | –
67 | Oc1nnc(SCc2nc3ccccc3s2)n1Cc1ccco1 | > 1460 nM | 268 nM | > 10000 nM | –
68 | Cc1ccc(NC(=O)CCCCC(=O)Nc2ccc(C)c(Br)c2)cc1Br | > 1160 nM | > 1450 nM | > 10000 nM | –
69 | Cc1c(Cl)cccc1NCC(=O)NN=C1CCCC1 | > 1250 nM | > 948 nM | > 10000 nM | –
